Measured values: patent US12144299B2, “Mobilisation of transposable elements to enhance genetic and epigenetic variability in a population” (priority 2015, dated 2024)
“Also recorded” adds a separate entry of the source.

Legend:
LINE-1 retrotransposon = assay: LINE-1 DNA methylation assay in A549 cells; type: cell-based, human; conditions: A 0.5 μg/ml, Z 350 μM
Protocol: (§1) For the A549 human cancer cell line cells were grown in medium without treatment or supplemented with either Z (350 μM) or A (0.5 μg/ml), DNA was extracted by using the QiaAmp DNA mini Kit (Qiagen, France). Next, global DNA methylation was estimated by quantifying the presence of 5-methylcytosine 5-mC DNA ELISA Kit (Zymo Research) according to the manufacturers's instructions. DNA methylation at the LINE-1 transposons were assessed with the Global DNA Methylation Assay—LINE-1 kit (Active Motif).

ONSEN LTR = assay: DNA methylation analysis (DdeI chop PCR, bisulfite sequencing) at the ONSEN LTR; type: in vivo, Arabidopsis thaliana
Protocol: 20 ng of total genomic DNA isolated from Arabidopsis seedlings was digested with the methylation sensitive restriction enzyme, Dde1 (NEB) at 37° C. over night. Following heat inactivation at 60° C. for 20 min, the digested DNA was used as a template for the chopPCR. Actin2 served as a control for the digest. Undigested DNA was used as a loading control. PCR products were separated on a 1% agarose gel and stained with Midori Green.

ONSEN retrotransposon = assay: ONSEN extrachromosomal DNA accumulation by qPCR in seedlings after heat stress; type: in vivo, Arabidopsis thaliana; conditions: HS
Protocol: After stratification for two days at 4° C., Arabidopsis thaliana plants (accession Col-0) were grown on sterile ½ MS medium with 1% sucrose and a pH of 5.8 (control medium) under long day conditions (16 h light) at 24° C. (day) and 22° C. (night), respectively. Oryza sativa plants were grown on sterile ½ MS medium with 1% sucrose and a pH of 5.8 (control medium) 16 h at 28° C. (day) and 27° C. (night), respectively.
The induction of epigenetic changes and the activation and stable integration of transposable elements in Arabidopsis seedlings was enhanced by germinating and growing them on ½ MS-medium that contained zebularine (final concentration: 10-40 μM), α-amanitin (final concentration: 0.005-20 μg/ml) or a combination of both chemicals (inductive media).
In order to trigger the transposition of the heat-responsive retrotransposon ONSEN, seven days old seedlings were exposed to a cold shock for 24 h at 6° C. followed by a heat-stress for 24 h at 37° C. (heat stress, HS) under controlled conditions in a growth chamber (Sanyo). Control plants were transferred back to longday-conditions 24° C. (day) and 22° C. (night) after the cold treatment at 6° C. for 24 h (CS, control stress, according to Ito et al., 2011).
Total DNA from seedlings and adult plants was isolated using a DNeasy Plant Mini Kit (QIAGEN).
In preparation to the measurement of extrachromosomal DNA copies of ONSEN in CS/HS and untreated/treated seedlings, roots were dissected directly after the heat stress and plants were immediately frozen in liquid nitrogen until DNA extraction.
The copy numbers of ONSEN were determined with qPCRs on total DNA using a TaqMan master mix (Life Technologies) in a final volume of 10 μl in the Light-Cycler 480 (Roche). ACTOPIA17 copy number was measured by quantitative PCR (qPCR) in a Light-Cycler 480 (Roche), using […] Master Mix. Actin2 (At3g18780) served as a standard gene for normalization.

[1] = system: A549 human cancer cell line; assay: Global DNA methylation (5-mC DNA ELISA) in A549 cells; type: cell-based; conditions: A 0.5 μg/ml, Z 350 μM
Protocol: as §1

SMILES	reduction of DNA methylation at LINE-1 (LINE-1 retrotransposon) [%]	DNA methylation at the ONSEN LTR at higher A concentration (ONSEN LTR; WT (Col) seedlings, A 20 μg/ml, Z 10 μM)	CHH methylation at the ONSEN LTR (ONSEN LTR; after CS, A 5 μg/ml, Z 40 μM)	ONSEN copy number at different α-amanitin concentrations (ONSEN retrotransposon; Col wildtype seedlings, α-amanitin in different concentrations in μg/ml)	ONSEN ecDNA accumulation in dcl2/3/4 triple mutant (ONSEN retrotransposon; dcl2/3/4 triple-mutant grown on A)	ONSEN ecDNA accumulation in rdr6 mutant (ONSEN retrotransposon; rdr6 plants grown on A)	ONSEN ecDNA accumulation after heat stress (ONSEN retrotransposon; wild-type seedlings, A 5 μg/ml, Z 40 μM)	reduction of global DNA methylation [1] [%]
O=c1ncccn1[C@@H]1O[C@H](CO)[C@@H](O)[C@H]1O [Z, zebularine]	20	–	–	–	–	–	–	–
CC[C@H](C)[C@@H]1NC(=O)CNC(=O)[C@@H]2Cc3c([nH]c4cc(O)ccc34)[S+]([O-])C[C@@H](NC(=O)CNC1=O)C(=O)N[C@@H](CC(N)=O)C(=O)N1C[C@H](O)C[C@H]1C(=O)N[C@@H]([C@@H](C)[C@@H](O)CO)C(=O)N2 (stereo partly drawn) [A, alpha-amanitin]	40	reduction in DNA-methylation; also recorded: strongly reduced DNA methylation	reduced CHH methylation levels	dose dependent accumulation	no effect	still enhancing ecDNA accumulation	increase in ONSEN ecDNA	40
